Assay results: PMC12048343, “Discovery of a small molecule secreted clusterin enhancer that improves memory in Alzheimer’s disease mice” (npj Drug Discovery, 2025)

What was measured:
[1] = test system: ApoE4TR-5XFAD murine model of AD; experiment: Subchronic two-week oral study in ApoE4TR-5XFAD mice (hippocampus biomarkers, proteomics); format: in vivo, mouse; settings: oral 15 mg/kg BID, two weeks, vs vehicle
Description: Brain tissue was homogenized and diluted to a protein concentration of 50 ng/mL. The Mouse Clusterin ELISA Kit (Cat#ab199079, Abcam) was performed according to the manufacturer’s protocol.
Additional assays: The Aβ1-42 ELISA assay was performed on hippocampus brain homogenate according to the manufacturer’s protocol (Fisher KHB3441). Humanin in cell culture lysate was quantify by ELISA assay, according to the manufacturer’s protocol (MyBioSourc Cat# MBS7607247). SirT1 in cell culture lysate was quantify using AlphaLISA. Cell lysate (2 μL) was added to a 384-well proxy plate preloaded with 2 µL anti-SiRT1 antibody mixture (ABCAM catalog AB110304, biotinylated (10 nM) and ABCAM catalog AB104833, acceptor bead conjugated (50 µg/mL, Cat#6772001, Perkin Elmer)) was added and incubated at room temperature for 1 hour. AlphaScreen Streptavidin Donor beads (2 µL, Cat#6760002S, Perkin Elmer) were added, incubated for an additional 30 min in the dark, and the plate was read in an Envision plate reader.
All procedures were performed in accordance with protocols approved by the UCLA Institutional Animal Care and Use Committee (IACUC) and guidelines of the NIH. Mouse strains used were C57BL/6 J (Black 6, Jackson Laboratory; JAX stock #000564). All non-AD mice were 4 to 5 mo old at the time of the experiments. […]

[2] = test system: human iPSC-derived neurons; experiment: Neurite outgrowth assay in iPSC-derived human neurons; format: cell-based; settings: 48 h
Description: The iPSC derived human neurons were provided by the Kornblum lab to be cultured in normal growth conditions (37 °C, 5% CO2) for 2–3 days. Cells were cultured in CELLSTAR uClear 384 well plates, PS, F bottom at seeding density of 5000 cells per well coated overnight with 30 ug/mL poly-D-lysine and 2 ug/mL laminin. Media was replaced every 3 days with Lonza Primary Neuron Basal Medium (PNBM) supplemented with 2 mM L-glutamine, GA-1000, and 2% NSF-1. On day 3, cells were treated with DDL357 in doses ranging from 15,000 nM to 0.76 nM for 48 h. All compounds were diluted in 0.5% DMSO and pinned to 384 well plates with 25 µL of cell media per well with pin size of 250 nL using BioMek FX (Beckman Coulter, CA). After 48 h, media was replaced twice to ensure removal of any remaining compound residues before imaging for neurite outgrowth with Calcein-AM and Hoescht. Imaging was done at UCLA Molecular Screening Shared Resource core facility (MSSR; Robert Damoiseaux, Ph.D., Director) with ImageXPress Confocal (Molecular Devices, CA) using a 10x objective. Total neurite outgrowth was measured via a MetaXpress (Molecular Devices, CA) neurite outgrowth analysis algorithm. […] Mean neurite outgrowth per drug exposure was determined by normalizing to vehicle control (n = 60). […]

SMILES: Cc1sc2c(c1C)C(c1ccc(Cl)cc1)=N[C@@H](CC(=O)OC1CC1)c1nnc(C)n1-2 [DDL-357]
- Aβ1-42 in brain [1]: the difference did not reach significance
- sCLU levels in the hippocampus [1]: significant increase
- concentrations associated with significantly increased neurite outgrowth [2]: 0.8 to 61.7 nM
